From BigSolDB 2.1

Nc1cc(-c2ccncc2)c[nH]c1=O
solubility (mole fraction)
Conditions | 278.15 K | 283.15 K | 288.15 K | 293.15 K | 298.15 K | 303.15 K | 308.15 K | 313.15 K | 318.15 K | 323.15 K
in DMF | 7.24e-05 | 8.63e-05 | 0.000102 | 0.000118 | 0.000135 | 0.000154 | 0.000177 | 0.000203 | 0.000229 | 0.00026
in ethanol | 2.65e-05 | 3.18e-05 | 3.71e-05 | 4.41e-05 | 5.07e-05 | 5.84e-05 | 6.7e-05 | 7.54e-05 | 8.47e-05 | 9.67e-05
in ethylene glycol | 1.95e-05 | 2.33e-05 | 2.74e-05 | 3.26e-05 | 3.83e-05 | 4.35e-05 | 4.95e-05 | 5.62e-05 | 6.36e-05 | 7.18e-05
in methanol | 5.18e-05 | 6.11e-05 | 7.22e-05 | 8.44e-05 | 9.72e-05 | 0.000111 | 0.000126 | 0.000141 | 0.00016 | 0.00018
in water | 6.85e-07 | 8.07e-07 | 9.66e-07 | 1.13e-06 | 1.33e-06 | 1.53e-06 | 1.77e-06 | 2.02e-06 | 2.3e-06 | 2.63e-06
